Entries after “also recorded” stand apart in the source; their conditions may differ.

For data set [1], the system named is NSC-34 cells transfected with FUS R495X, TDP-43 A315T or SOD1 G93A. Briefly: Ratio of pre-miRNA to miRNA levels in NSC-34 cells transfected with ALS-causing mutants. It counts as cell-based. The note with it: CHX 0.02 μg/ml, 72 hrs.
Excerpt: Ratio of pre-miRNA to miRNA expression levels in NSC-34 cells, transfected with plasmids that drive the expression of FUS R459X (FIG. 10A), TDP-43 A315T (FIG. 10B) or SOD1 G93A (FIG. 10C), relative to control plasmid transfection. […] Average of 3 independent experiments, except for pre-miRs in FUS R495X (n=2).
RNA was extracted using Tri reagent (Molecular Research Center Inc.) or Qiazol with consecutive use of the miRNeasy Mini Kit (Qiagen). Pre-miRNA and miRNA reverse transcription was performed using miScript Kits No. I & II (Qiagen). Quantitative analysis of miRNA and pre-miRNA expression performed in more than 3 independent biological repeats and additionally in technical duplicates with StepOnePlus quantitative Real-Time PCR System and 2-sided ANOVA-test performed with DataAssist Software (Life technologies Inc.). […]
The test system of data set [2] is interaction of Ago2 with Dicer and eIF3L. Briefly: Targeted mass spectrometry of Ago2 interactions in FUS R495X-expressing cells. The note with it: Cycloheximide 0.02 μg/ml, 72 hrs. The class given is cell-based. The protocol: (FIG. 9A) The ratio of pre-miRNA to mature miRNA levels in NSC-34 cells, transfected with plasmids as indicated and in cells treated for 72 hrs with carrier alone (water, black) or with cycloheximide (CHX, 0.02 μg/ml, gray). Data normalized to control plasmid transfection. Pre-miRNAs further normalized to Gapdh (for FUS R495X, TDP-43 A315T) or to beta-actin (SOD1 G93A) and miRNA levels normalized to Snord68. Average of three independent experiments except for pre-miRNAs in the study of FUS R495X (n=2). Targeted quantitative mass spectrometry analysis of changes in the binding of Ago2 or Dicer to a set of proteins interactors under stress (FIGS. 9B-E). Immunoprecipitated Ago2-Flag (FIG. 9B) or Dicer-Flag (FIG. 9C) from HEK 293 cells, cultured under basal conditions or treated with sodium arsenite (0.5 mM, 60 min) was subjected to targeted mass-spectrometry analysis. Data is averaged from two or three different peptide standards per protein and normalized to the levels of co-immunoprecipiated peptides from untreated cells. Statistically significant result in a student t-test, between arsenite and control treatment is denoted (*p<0.05). Targeted mass spectrometry of (FIG. 9D) Dicer cofactors or (FIG. 9E) SG components, immunoprecipitated with AGO-Flag in FUS R495X-expressing HEK 293 that were further treated for 72 hrs with carrier alone or Cycloheximide (0.02 μg/ml). […]

Data set [3] has as its system HEK293 cells transfected with ALS-causing mutant SOD1 G93A. Briefly: miRNA and pre-miRNA expression (qPCR) in HEK293 cells transfected with SOD1 G93A. It counts as cell-based. Conditions: 100 μM Enoxacin. On the procedure:
Data normalized to miRNA levels in cultures that were transfected with GFP and treated with Doxycyclin and to the expression of the small RNAs 5S. Pre-miRNA expression normalized to beta-actin. […] For miRNA studies in cultured cells, reverse transcription for consecutive parallel analysis of pre-miRNA and miRNA expression was performed using miScript I & II Kits (Quiagen). Quantitative analysis of miRNA and pre-miRNA expression performed with StepOnePlus Real-Time PCR System (Life technologies Inc.). All experiments were performed in at least 3 independent biological repeats and qPCR performed in technical duplicates.
(In general: Quantitative PCR measures a nucleic acid by following its amplification.)

The subject of another data set is frontal cortex of rats. The note with it: cited from earlier work.
Data set [4] in a line: Enoxacin pharmacokinetics and efficacy in CF-1 mice (literature). The class given is in vivo, mouse. The note with it: 100 mg/kg orally in drinking water per day.
The conditions of data set [5]: cited from earlier work.
Data set [6] deals with SOD1 G93A mouse model of ALS. Briefly: miRNA expression in lumbar spinal cords of SOD1 G93A mice (qPCR). Conditions: oral, 800 mg/kg body weight per day for 48 days.
Description: Multiple time-point analysis of miRNA expression in the lumbar spinal cords (L4, L5) of SOD1 G93A mutant mice relative to wild-type sibling controls (3 spinal cords per group). (FIG. 11A) qPCR analysis of miRNAs normalized to average of snoRNA202 and snoRNA234. (FIG. 11B) Levels of mRNA encoding for protein components of the Dicer complex were measured and normalized to the expression of Gapdh. […] (FIG. 11D) Levels of mRNA encoding for protein components of the Dicer complex were measured and normalized to the expression of Gapdh. 2-way ANOVA-testing with significant p-values indicated by *p<0.05, **p<0.01, ***p<0.001. Error bars, s.d.
Data set [7] concerns SOD1 G93A mouse model of ALS. The data set is described as follows: In vivo Enoxacin study of neuromuscular function in SOD1 G93A mice. On the procedure:
800 mg/kg-bodyweight/day (n=40) or carrier (water; n=37) to SOD1 G93A male mice started day 42 of the mouse life. […] 200 mg/kg-bodyweight/day or carrier (water) to SOD1 G93A male mice started day 42 of the mouse life. […] Error bars, s.d.
Food and water was provided ad libitum. […] All other tests employed 2-way ANOVA.
To further evaluate motor function an automated quantitative gait analysis was performed using the CatWalk system [Neumann et al. (2009) J Neurosci Methods 176(1): 34-44].

For data set [8] the following is noted: humans; single Enoxacin of 600 mg; cited from earlier work.
The test system of a further data set is SOD1 G93A mice. Briefly: Preliminary Enoxacin study in SOD1 G93A mice (from age of 50 days in drinking water). The class given is in vivo, mouse. On the procedure: For in vivo experiments, transgenic SOD1 (superoxide dismutase 1) mice were used which express a G93A mutant form of human SOD1. […] Mouse life span and neuromuscular function were monitored. Neuromuscular function was assessed by neurological score that tests the mouse muscle tonus reflexes and overall in-cage locomotive activity as previously described in […] et al. [[…] et al., Brain Res. (2011) Jun. 7; 1394:90-104]. Hang-wire test was utilized which measures gross physical strength of forelimbs, hindlimbs, capacity to adduct when hand on a pole and to walk. Automated Catwalk gait analysis system was utilized which is based on camera monitored computerized locomotion testing automated system by Noldus Information Technology, The Netherlands.

The subject of data set [9] is TDP-43 A315T mouse model of ALS.
Description: 200 mg/kg-bodyweight/day (n=9) or carrier (water; n=8) to TDP-43 A315T mutant female mice started at day 42 of the mouse life. (FIG. 13A) Onset of symptoms (neurological score 1); 2-way ANOVA p=0.0013. […] Error bars, s.d.
Animals were group-housed on a 12 hour light-dark cycle. Food and water was provided ad libitum. […] RotaRod™ performance (San Diego Instruments) was evaluated at ramp speed 4, 40 rpm. Data was presented as the average latency to fall off the rotarod of three independent rounds per time point, and was normalized to average initial performance at pre-symptomatic stage for each individual for each time point. A fully automated gait analysis with the Catwalk XT™ (Noldus) system was performed. Data was obtained of more than 4 independent rounds on the apparatus. For Hangwire muscle strength assessment, mice were allowed forelimb grip onto a 2-mm thick horizontal metal wire, suspended 80 cm above surface. Ability to successfully raise hindlimbs to grip the wire and crawling to the end of the wire was scored: 1=Successful four-paw grip and crawling to the end of the wire within less than 60 seconds. 2=Four-paw grip for more than 15 seconds without crawling. 3=Failure to successfully establish hindlimb grip in 60 seconds. 4=Inability to sustain forelimb grip for 60 seconds. Each mouse was evaluated in 2 sessions on 2 consecutive days, consisting of 3 trials each, with a 15 minute inter-trial interval. […] 1=collapse or partial leg collapse towards midline or hind leg trembling during tail suspension. 2=toes curl under at least twice during a 12 inch walk, or any part of foot is dragging along cage/table bottom. 3=rigid paralysis or minimal joint movement, foot not being used for forward motion. 4=humane endpoint, mouse cannot right itself within 30 seconds on either side. The locomotion of animals was quantified over a period of 46 hrs in the home cage, by automated sensing of body-heat image using an InfraMot (TSE-Systems). Individual animal movements were summed up every 30 minutes. Animal statistics: Homecage locomotion was analyzed using the 2-sided Student's t-test. Rotarod performance was evaluated using the 2-way ANOVA with repeated measures for each individual. Weight peak, weight decline, onset of symptoms and survival were calculated with GraphPad Prism 6 using the Logrank (Mantel-Cox) test. All other tests employed 2-way ANOVA.
Data set [10] concerns HEK293 cells transfected with ALS-causing mutants TDP-43 A315T or FUS 495X. The data set is described as follows: miRNA and pre-miRNA expression (qPCR) in HEK293 cells transfected with ALS-causing TDP-43 or FUS mutants. It counts as cell-based. Conditions: 100 μM Enoxacin. The source says: Depicted are bar-graph representations of relative miRNA expression levels in cells, transfected with GFP and treated with Doxycyclin, compared to the expression of the small RNAs U6 or 5S, on a log2 scale. […] Data normalized to miRNA levels in cultures that were transfected with GFP and treated with Doxycyclin and to the expression of the small RNAs U6 or 5S. Pre-miRNA expression normalized to beta-actin. […] For miRNA studies in cultured cells, reverse transcription for consecutive parallel analysis of pre-miRNA and miRNA expression was performed using miScript I & II Kits (Quiagen). Quantitative analysis of miRNA and pre-miRNA expression performed with StepOnePlus Real-Time PCR System (Life technologies Inc.). All experiments were performed in at least 3 independent biological repeats and qPCR performed in technical duplicates. The present inventors reasoned that Dicing of pre-miRNAs is inhibited by the expression of ALS-causing versions of TDP-43 or FUS and thus searched for changes in mRNA encoding for miRNA-processing factors in gene expression and splicing data from the same patients^9. […] Thus, impaired miRNA bioprocessing in ALS may be reversible by a non-toxic Fluoroquinolone.

The mark [11] stands for this setting: oral 800 mg/kg-bodyweight/day from day 42.
[12] abbreviates: 200 mg/kg in drinking water from the age of 50 days.

As for `C[C@@H]1C[C@@H]([C@H](O)CC2CC(=O)NC(=O)C2)C(=O)[C@@H](C)C1` [cycloheximide], the “Dicer complex activity (ratio of pre-miRNA to mature miRNA)” value in data set [1] is “prevented the reduction in Dicer complex activity”. Besides, the “mutant-induced interaction of Ago2 with Dicer and eIF3L” value in data set [2] was “reduced mutant-induced interaction of Ago2 with Dicer and eIF3L”.
Regarding `CCn1cc(C(=O)O)c(=O)c2cc(F)c(N3CCNCC3)nc21` [Enoxacin], in data set [3], the “mature miRNA expression” value is recorded as “recovers the downregulation of mature miRNA expression” and the pre-miRNA levels result is “reverses pre-miRNA upregulation”. Also, in the data set on frontal cortex of rats, the “expression of miRNAs in the frontal cortex” value was “increase the expression of miRNAs” and the impact on depression entry is on record as “beneficial impact”. Also, the “serum peak concentration expressed in molar terms” value in data set [4] was found to be 12.5 µM. For the same compound, the activity in mice entry in [5] (100 mg/kg orally in drinking water per day) is “active”. Besides, the “mean serum peak concentrations” value in [5] (mice, 100 mg/kg orally in drinking water per day) was 4 mg/L. Besides, the toxicity in mice entry in data set [5] (mouse, in vivo) is “non-toxic”. Besides, in data set [6], the “mRNA levels of Ago2, Dicer, PACT and TRBP” value is “remained unchanged”. In data set [6] (from day 42, harvest day 90), the “miRNA levels in lumbar spinal cords” value was “compensated”. Besides, the “gross strength (hangwire assay)” value in data set [7] (200 mg/kg-bodyweight/day) is reported as “significant improvement in gross strength”. Moreover, the “homecage locomotion (InfraMot)” value in [7] (200 mg/kg-bodyweight/day, 46 hrs, day 129-130) is recorded as “moved significantly more than untreated controls”. Moreover, in data set [7] (200 mg/kg-bodyweight/day, day 120, normalized to day 50), the Rotarod performance entry is given as “beneficial impact; also recorded: stable performance at day 120”. In addition, the “swing speed (CatWalk gait analysis)” value in data set [7] (800 mg/kg-bodyweight/day, day 73) was “significantly higher”. Also, the “stride length (CatWalk gait analysis)” value in data set [7] (800 mg/kg-bodyweight/day, day 80) is given as “significantly increased”. For the same compound, the Rotarod performance result in data set [7] (800 mg/kg-bodyweight/day, normalized to day 92) is “significantly improved performance”. For the same compound, in data set [7] (setting [11]), the “delay at the onset of neurological symptoms (neurological score 1)” value is given as “about 7 days”, the “neurological status (neurological score)” value is reported as “superior to untreated controls”, the “onset of weight decline (loss of 1 gram body weight after the weight peak)” value is listed as “delayed” and the weight peak entry is reported as “delayed”. The “survival / lifespan (Kaplan-Meier)” value in data set [7] (oral 800 mg/kg-bodyweight/day from day 42, 800 mg/kg) is given as “no significant differences; also recorded: did not extend the lifespan”. Also, the plasma peak concentration in data set [8] is 3.7 µg/mL. In addition, in the data set with SOD1 G93A mice (setting [12]), the “gross strength in a hang-wire test” value is reported as “beneficial impact”, the neurological score entry is given as “beneficial impact”, the overall lifespan entry is listed as “marginal effect” and the “overall locomotive function in a computerized cat-walk assay” value is reported as “beneficial impact”. The “deterioration in mouse neuromuscular function” value in the data set with SOD1 G93A mice (neurological score, hang-wire test, automated cat-walk study) was “slower”. In addition, in data set [9] (200 mg/kg-bodyweight/day), the “Rotarod performance up to day 120” value was “stable performance up to day 120 of life” and the “gross strength (hangwire assay)” value is listed as “improved”. Also, the “average stride length (Catwalk)” value in data set [9] (200 mg/kg-bodyweight/day, day 83) is on record as “longer”. In addition, the Rotarod test entry in data set [9] (oral 200 mg/kg-bodyweight/day from day 42) is given as “performed better than the untreated control group”. In addition, the neurological score entry in [9] (oral 200 mg/kg-bodyweight/day from day 42, female mice) is “better than that of untreated controls”. In [10], the “mature miRNA expression” value is listed as “reversed the negative impact of ALS-causing TDP-43 or FUS mutants on miRNA maturation; also recorded: recovers the downregulation of mature miRNA expression” and the pre-miRNA levels entry is on record as “reverses pre-miRNA upregulation”.
